Test results taken from patent US4647693A, “Antibiotics DO-248-A and B and process for preparing the same” (Shionogi & Co., Ltd., priority 1984, dated 1987).
Converted amounts (≈) assume the structure as drawn.

Legend:
[1] = system: M. tuberculosis R-18 (Kanamycin and rifanpicin resistant strain); experiment: MIC, two-fold dilution, Dubos Tween albumin liquid medium; format: cell-based; conditions: Mycobacterium tuberculosis, 336 h, read-out: minimal inhibitory concentration (MIC)
[2] = system: M. tuberculosis R-15 (Rifanpicin resistant strain); experiment: as above; format: cell-based; conditions: Mycobacterium tuberculosis, 336 h, read-out: minimal inhibitory concentration (MIC)

SMILES | MIC [1] | MIC [2]
NC[C@H]1O[C@H](O[C@H]2[C@H](O)[C@@H](O[C@H]3O[C@H](CO)[C@@H](O)[C@H](N)[C@H]3O)[C@H](N)C[C@@H]2N)[C@H](O)[C@@H](O)[C@@H]1O [KM, kanamycin] | > 25 µg/mL | < 0.001 µg/mL
CO[C@H]1/C=C/O[C@@]2(C)Oc3c(C)c(O)c4c(O)c(c(/C=N/N5CCN(C)CC5)c(O)c4c3C2=O)NC(=O)/C(C)=C\C=C\[C@H](C)[C@H](O)[C@@H](C)[C@@H](O)[C@@H](C)[C@H](OC(C)=O)[C@@H]1C [RFP, rifampicin] | > 25 µg/mL | > 25 µg/mL
CC(C)c1c(O)cc(C(NC(=N)N)C(=O)NCC(=O)O)cc1O (stereo not drawn) [DO-248-A, N-(α-guanidino-3,5-dihydroxy-4-isopropylphenylacetyl)glycine] | 0.025 µg/mL (≈ 0.0771 µM) | 0.1 µg/mL (≈ 0.308 µM)
